Results from patent US10131652B2, “Pyrimidinyloxy benzene derivatives as herbicides” (E. I. DU PONT DE NEMOURS AND COMPANY, priority 2014, dated 2018).

Columns and labels:
Assay in all cases: Test D pre-/postemergence plant response
Format in all cases: in vivo
[1] = system: Italian ryegrass (Lolium multiflorum); details: Postemergence; for Ryegrass, Italian plant response rating: scale 0 to 100 (0 no effect, 100 complete control); for Plant response rating, Ryegrass, Italian: scale 0 to 100, 0 no effect, 100 complete control
How it was run: (§1)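 Test chemicals were formulated in a non-phytotoxic solvent mixture containing surfactant and applied either preemergence to seeds in loam–sand soil or postemergence to plants 2 to 18 cm tall (1- to 4-leaf stage). Response was rated visually against controls after 13 to 15 days, from 0 (none) to 100 (complete control).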

[2] = system: barnyardgrass (Echinochloa crus-galli); details: Postemergence; for Barnyardgrass plant response rating: scale 0 to 100 (0 no effect, 100 complete control); for Plant response rating, Barnyardgrass: scale 0 to 100, 0 no effect, 100 complete control
How it was run: as §1

[3] = system: blackgrass (Alopecurus myosuroides); details: Postemergence; for Blackgrass plant response rating: scale 0 to 100 (0 no effect, 100 complete control); for Plant response rating, Blackgrass: scale 0 to 100, 0 no effect, 100 complete control
How it was run: as §1

[4] = system: corn (Zea mays); details: Postemergence; for Corn plant response rating: scale 0 to 100 (0 no effect, 100 complete control); for Plant response rating, Corn: scale 0 to 100, 0 no effect, 100 complete control
How it was run: as §1

[5] = system: galium (catchweed bedstraw, Galium aparine); details: Postemergence; for Galium plant response rating: scale 0 to 100 (0 no effect, 100 complete control); for Plant response rating, Galium: scale 0 to 100, 0 no effect, 100 complete control
How it was run: as §1

[6] = system: giant foxtail (Setaria faberii); details: Postemergence; for Foxtail, Giant plant response rating: scale 0 to 100 (0 no effect, 100 complete control); for Plant response rating, Foxtail, Giant: scale 0 to 100, 0 no effect, 100 complete control
How it was run: as §1

[7] = system: johnsongrass (Sorghum halepense); details: Postemergence; for Johnsongrass plant response rating: scale 0 to 100 (0 no effect, 100 complete control)
How it was run: as §1

[8] = system: lambsquarters (Chenopodium album); details: Postemergence; for Lambsquarters plant response rating: scale 0 to 100 (0 no effect, 100 complete control); for Plant response rating, Lambsquarters: scale 0 to 100, 0 no effect, 100 complete control
How it was run: as §1

[9] = system: large (Lg) crabgrass (Digitaria sanguinalis); details: Postemergence; for Crabgrass, Large plant response rating: scale 0 to 100 (0 no effect, 100 complete control); for Plant response rating, Crabgrass, Large: scale 0 to 100, 0 no effect, 100 complete control
How it was run: as §1

[10] = system: morningglory (Ipomoea coccinea); details: Postemergence; for Morningglory plant response rating: scale 0 to 100 (0 no effect, 100 complete control); for Plant response rating, Morningglory: scale 0 to 100, 0 no effect, 100 complete control
How it was run: as §1

[11] = system: oilseed rape (Brassica napus); details: Postemergence; for Oilseed Rape plant response rating: scale 0 to 100 (0 no effect, 100 complete control); for Plant response rating, Oilseed Rape: scale 0 to 100, 0 no effect, 100 complete control
How it was run: as §1

[12] = system: pigweed (Amaranthus retroflexus); details: Postemergence; for Pigweed plant response rating: scale 0 to 100 (0 no effect, 100 complete control); for Plant response rating, Pigweed: scale 0 to 100, 0 no effect, 100 complete control
How it was run: as §1

[13] = system: ragweed (common ragweed, Ambrosia elatior); details: Postemergence; for Ragweed plant response rating: scale 0 to 100 (0 no effect, 100 complete control); for Plant response rating, Ragweed: scale 0 to 100, 0 no effect, 100 complete control
How it was run: as §1

[14] = system: soybean (Glycine max); details: Postemergence; for Soybean plant response rating: scale 0 to 100 (0 no effect, 100 complete control); for Plant response rating, Soybean: scale 0 to 100, 0 no effect, 100 complete control
How it was run: as §1

[15] = system: velvetleaf (Abutilon theophrasti); details: Postemergence; for Velvetleaf plant response rating: scale 0 to 100 (0 no effect, 100 complete control); for Plant response rating, Velvetleaf: scale 0 to 100, 0 no effect, 100 complete control
How it was run: as §1

[16] = system: waterhemp (common waterhemp, Amaranthus rudis); details: Postemergence; for Waterhemp plant response rating: scale 0 to 100 (0 no effect, 100 complete control); for Plant response rating, Waterhemp: scale 0 to 100, 0 no effect, 100 complete control
How it was run: as §1

[17] = system: winter wheat (Triticum aestivum); details: Postemergence; for Wheat plant response rating: scale 0 to 100 (0 no effect, 100 complete control); for Plant response rating, Wheat: scale 0 to 100, 0 no effect, 100 complete control
How it was run: as §1

[18] = system: yellow nutsedge (Cyperus esculentus); details: Postemergence; for Nutsedge, Yellow plant response rating: scale 0 to 100 (0 no effect, 100 complete control); for Plant response rating, Nutsedge, Yellow: scale 0 to 100, 0 no effect, 100 complete control
How it was run: as §1

FC(Cl)c1cc(-c2ccccc2Oc2ncc(Cl)cn2)no1 (centres unmarked) [Compound 116]
5: Plant response rating, Ryegrass, Italian ([1]; 62 g ai/ha) | Barnyardgrass plant response rating ([2]; 16 g ai/ha) | Barnyardgrass plant response rating ([2]; 31 g ai/ha) | Blackgrass plant response rating ([3]; 31 g ai/ha) | Plant response rating, Blackgrass ([3]; 62 g ai/ha) | Corn plant response rating ([4]; 16 g ai/ha) | Plant response rating, Corn ([4]; 62 g ai/ha) | Foxtail, Giant plant response rating ([6]; 16 g ai/ha) | Foxtail, Giant plant response rating ([6]; 31 g ai/ha) | Crabgrass, Large plant response rating ([9]; 16 g ai/ha) | Crabgrass, Large plant response rating ([9]; 31 g ai/ha) | Plant response rating, Wheat ([17]; 62 g ai/ha) | Plant response rating, Wheat ([17]; 125 g ai/ha) | Nutsedge, Yellow plant response rating ([18]; 16 g ai/ha) | Nutsedge, Yellow plant response rating ([18]; 31 g ai/ha)
55: Plant response rating, Oilseed Rape ([11]; 62 g ai/ha) | Soybean plant response rating ([14]; 31 g ai/ha) | Velvetleaf plant response rating ([15]; 16 g ai/ha)
30: Plant response rating, Barnyardgrass ([2]; 125 g ai/ha) | Plant response rating, Morningglory ([10]; 125 g ai/ha) | Plant response rating, Soybean ([14]; 62 g ai/ha)
10: Plant response rating, Ryegrass, Italian ([1]; 125 g ai/ha) | Corn plant response rating ([4]; 31 g ai/ha) | Plant response rating, Corn ([4]; 125 g ai/ha) | Plant response rating, Foxtail, Giant ([6]; 62 g ai/ha) | Johnsongrass plant response rating ([7]; 16 g ai/ha) | Morningglory plant response rating ([10]; 31 g ai/ha) | Plant response rating, Morningglory ([10]; 62 g ai/ha) | Oilseed Rape plant response rating ([11]; 31 g ai/ha) | Plant response rating, Nutsedge, Yellow ([18]; 62 g ai/ha)
25: Plant response rating, Crabgrass, Large ([9]; 62 g ai/ha) | Plant response rating, Nutsedge, Yellow ([18]; 125 g ai/ha)
50: Oilseed Rape plant response rating ([11]; 16 g ai/ha)
80: Plant response rating, Lambsquarters ([8]; 62 g ai/ha)
100: Plant response rating, Lambsquarters ([8]; 125 g ai/ha) | Plant response rating, Waterhemp ([16]; 125 g ai/ha)
95: Plant response rating, Soybean ([14]; 125 g ai/ha)
35: Plant response rating, Blackgrass ([3]; 125 g ai/ha) | Ragweed plant response rating ([13]; 31 g ai/ha)
65: Velvetleaf plant response rating ([15]; 31 g ai/ha)
20: Plant response rating, Barnyardgrass ([2]; 62 g ai/ha) | Johnsongrass plant response rating ([7]; 31 g ai/ha) | Plant response rating, Johnsongrass ([7]; 62 g ai/ha, scale 0 to 100, 0 no effect, 100 complete control)
0: Ryegrass, Italian plant response rating ([1]; 16 g ai/ha) | Ryegrass, Italian plant response rating ([1]; 31 g ai/ha) | Blackgrass plant response rating ([3]; 16 g ai/ha) | Wheat plant response rating ([17]; 31 g ai/ha)
15: Morningglory plant response rating ([10]; 16 g ai/ha)
75: Pigweed plant response rating ([12]; 16 g ai/ha) | Pigweed plant response rating ([12]; 31 g ai/ha) | Plant response rating, Ragweed ([13]; 125 g ai/ha) | Plant response rating, Velvetleaf ([15]; 125 g ai/ha)
90: Plant response rating, Galium ([5]; 125 g ai/ha) | Plant response rating, Pigweed ([12]; 62 g ai/ha) | Plant response rating, Pigweed ([12]; 125 g ai/ha) | Waterhemp plant response rating ([16]; 31 g ai/ha) | Plant response rating, Waterhemp ([16]; 62 g ai/ha)
70: Plant response rating, Galium ([5]; 62 g ai/ha) | Plant response rating, Oilseed Rape ([11]; 125 g ai/ha) | Plant response rating, Velvetleaf ([15]; 62 g ai/ha) | Waterhemp plant response rating ([16]; 16 g ai/ha) | Wheat plant response rating ([17]; 16 g ai/ha)
40: Lambsquarters plant response rating ([8]; 16 g ai/ha) | Plant response rating, Crabgrass, Large ([9]; 125 g ai/ha) | Ragweed plant response rating ([13]; 16 g ai/ha) | Soybean plant response rating ([14]; 16 g ai/ha)
60: Galium plant response rating ([5]; 16 g ai/ha) | Galium plant response rating ([5]; 31 g ai/ha) | Plant response rating, Foxtail, Giant ([6]; 125 g ai/ha) | Lambsquarters plant response rating ([8]; 31 g ai/ha) | Plant response rating, Ragweed ([13]; 62 g ai/ha)
